{"source": "patent US12186303B2", "about": "“Feed additive for cattle comprising n-acetyl-l-tryptophan as active ingredient” (CJ CHEILJEDANG CORPORATION, priority 2018, dated 2025)", "key": {"[1]": {"system": "Korean native steers", "assay": "Feed intake according to NALT feeding under cold stress conditions", "format": "in vivo, Korean native cattle", "details": "for Feed intake: 0.1% NALT", "description": "After grouping the animals by statistical analysis of initial body weights, the animals were bred in 1.0×1.5 m^2 individual pens during the experiment period. The feed was offered based on an amount of dry matter of daily total mixed ration (TMR) per head. After 7 days of an adaptation period for N-acetyl-L-tryptophan (NALT), a mixture of 0.1% N-acetyl-L-tryptophan (NALT) and the total mixed ration was fed to individual animals every morning at 8 a.m. for 6 weeks, and water was available ad libitum. Total amounts of L-tryptophan ingested by the control and NALT-treated group by feeding NALT were 7.37 g/day/head and 16.26 g/day/head, respectively. The experiment was performed such that the NALT-treated group ingested 8.89 g/day/head more L-tryptophan than that of the control. Meanwhile, results of growth performance analysis (body weight and average feed intake) and genetic analysis of loin tissue were obtained by statistically comparing and analyzing significant differences between the control and the NALT-treated group, and results of hematological analysis were obtained via statistical comparison and analysis depending on NALT treatment, experiment period (days), and interaction (treatment×days). These numerical values were expressed as average values, and a significance test was performed at the 5% level using Student's t-test by using the JMP 5.0 software package (SAS Institute Inc., Cary, NC, USA). Feed intake of each sentinel animal was calculated by measuring a total amount of feed offered and an amount left over every day."}, "[2]": {"system": "Korean native steers", "assay": "Serum hematological properties (biochemical autoanalyzer) under heat stress conditions", "format": "in vivo, Korean native cattle", "design": "GLO (globulin = TP − ALB) / BUN (blood urea nitrogen) / GLU (glucose) / NEFA (non-esterified fatty acid) / TG (triglyceride) / Na (sodium): unit not given here", "details": "for ALB (albumin) / BUN (blood urea nitrogen) / CPK (creatinine phosphokinase) / GLO (globulin = TP − ALB) / GLU (glucose) / K (potassium) / NEFA (non-esterified fatty acid) / Na (sodium) / TG (triglyceride) / TP (total protein): 0.1% NALT, serum", "description": "After grouping the animals by statistical analysis of initial body weights, the animals were bred in 1.0×1.5 m^2 individual pens during the experiment period. The feed was offered based on an amount of dry matter of daily total mixed ration (TMR) per head. After 7 days of an adaptation period for N-acetyl-L-tryptophan (NALT), a mixture of 0.1% N-acetyl-L-tryptophan (NALT) and the total mixed ration was fed to individual animals every morning at 8 a.m. for 6 weeks, and water was available ad libitum. Total amounts of L-tryptophan ingested by the control and the experimental group (NALT-treated group) by feeding NALT were 6.0 g/day/head and 18.2 g/day/head, respectively. The experiment was performed such that the NALT-treated group ingested 12.2 g/day/head more L-tryptophan than the control.\nMeanwhile, results of growth performance analysis (body weight and average feed intake) and genetic analysis of loin tissue were obtained by statistically comparing and analyzing significant differences between the control and the NALT-treated group, and results of hematological analysis were obtained via statistical comparison and analysis depending on NALT treatment, experiment period (days), and interaction (treatment×days). These numerical values were expressed as average values, and a significance test was performed at the 5% level using Student's t-test by using a JMP 5.0 software package (SAS Institute Inc., Cary, NC, USA).\nBlood samples were collected from a jugular vein of each sentinel animal before offering the feed at the starting day of the experiment (week 0), the mid-point of the experiment (week 5), and the final day of the experiment (week 10) and stored in a vacutainer (Becton Dickinson, Franklin Lakes, NJ, USA). Complete blood cell count (CBC) was performed using whole blood using a VetScan HM2 (Abaxis, Union City, CA, USA), and hematological properties were identified using serum with a biochemical autoanalyzer (FUJI DRI-CHEM 7000, Fujifilm, Tokyo, Japan). In addition, total protein (TP), albumin (ALB), creatinine phosphokinase (CPK), and blood urea nitrogen (BUN), which are related to blood protein metabolism, were analyzed; triglycerides (TG) and non-esterified fatty acid (NEFA), which are related to energy metabolism, were analyzed; and sodium (Na), chlorine (CI), and potassium (K), which are blood electrolytes, were analyzed."}}}
{"smiles": "CC(=O)N[C@@H](Cc1c[nH]c2ccccc12)C(=O)O", "note": "[NALT, N-acetyl-L-tryptophan]", "values": [{"measurement": "Feed intake", "setting": "[1]; Days 0-6 (adaptation period)", "value": 8.56, "unit": "kg"}, {"measurement": "Feed intake", "setting": "[1]; Days 7-13", "value": 9.21, "unit": "kg"}, {"measurement": "Feed intake", "setting": "[1]; Days 7-48 (entire experiment period)", "value": 9.86, "unit": "kg"}, {"measurement": "Feed intake", "setting": "[1]; Days 14-20", "value": 9.56, "unit": "kg"}, {"measurement": "Feed intake", "setting": "[1]; Days 21-27", "value": 9.68, "unit": "kg"}, {"measurement": "Feed intake", "setting": "[1]; Days 28-34", "value": 10.22, "unit": "kg"}, {"measurement": "Feed intake", "setting": "[1]; Days 35-41", "value": 10.02, "unit": "kg"}, {"measurement": "Feed intake", "setting": "[1]; Days 42-48", "value": 10.56, "unit": "kg"}, {"measurement": "Feed intake compared with the control", "setting": "[1]; adaptation period (days 0-6)", "value": "No statistically significant difference"}, {"measurement": "Feed intake compared with the control", "setting": "[1]; days 7-41", "value": "no statistically significant difference"}, {"measurement": "Increase in average feed intake per head compared to the control", "setting": "[1]; days 7-48", "value": "about 4.6%"}, {"measurement": "Increase in feed intake compared to the control", "setting": "[1]; days 42-48", "value": "about 1.02 kg"}, {"measurement": "Average feed intake per head", "setting": "[1]; entire experiment period (days 7-48)", "value": 9.86, "unit": "kg/day/head"}, {"measurement": "Hematological analysis indicators (Table 14), effect of treatment with 0.1% NALT", "setting": "[2]", "value": "No statistically significant difference"}, {"measurement": "ALB (albumin)", "setting": "[2]; Day 0", "value": 3.3}, {"measurement": "BUN (blood urea nitrogen)", "setting": "[2]; Day 0", "value": 16.7}, {"measurement": "CPK (creatinine phosphokinase)", "setting": "[2]; Day 0", "value": 112}, {"measurement": "GLO (globulin = TP − ALB)", "setting": "[2]; Day 0", "value": 2.8}, {"measurement": "GLU (glucose)", "setting": "[2]; Day 0", "value": 49.6}, {"measurement": "K (potassium)", "setting": "[2]; Day 0", "value": 4.7}, {"measurement": "NEFA (non-esterified fatty acid)", "setting": "[2]; Day 0", "value": 139}, {"measurement": "Na (sodium)", "setting": "[2]; Day 0", "value": 141.3}, {"measurement": "TG (triglyceride)", "setting": "[2]; Day 0", "value": 25.5}, {"measurement": "TP (total protein)", "setting": "[2]; Day 0", "value": 6.1}, {"measurement": "ALB (albumin)", "setting": "[2]; Day 35", "value": 3.6}, {"measurement": "BUN (blood urea nitrogen)", "setting": "[2]; Day 35", "value": 19.8}, {"measurement": "CPK (creatinine phosphokinase)", "setting": "[2]; Day 35", "value": 267}, {"measurement": "GLO (globulin = TP − ALB)", "setting": "[2]; Day 35", "value": 2.9}, {"measurement": "GLU (glucose)", "setting": "[2]; Day 35", "value": 39.1}, {"measurement": "K (potassium)", "setting": "[2]; Day 35", "value": 4.8}, {"measurement": "NEFA (non-esterified fatty acid)", "setting": "[2]; Day 35", "value": 167}, {"measurement": "Na (sodium)", "setting": "[2]; Day 35", "value": 142.6}, {"measurement": "TG (triglyceride)", "setting": "[2]; Day 35", "value": 19.1}, {"measurement": "TP (total protein)", "setting": "[2]; Day 35", "value": 6.5}, {"measurement": "ALB (albumin)", "setting": "[2]; Day 70", "value": 3.5}, {"measurement": "BUN (blood urea nitrogen)", "setting": "[2]; Day 70", "value": 18.5}, {"measurement": "CPK (creatinine phosphokinase)", "setting": "[2]; Day 70", "value": 276}, {"measurement": "GLO (globulin = TP − ALB)", "setting": "[2]; Day 70", "value": 2.9}, {"measurement": "GLU (glucose)", "setting": "[2]; Day 70", "value": 56.3}, {"measurement": "K (potassium)", "setting": "[2]; Day 70", "value": 4.9}, {"measurement": "NEFA (non-esterified fatty acid)", "setting": "[2]; Day 70", "value": 168}, {"measurement": "Na (sodium)", "setting": "[2]; Day 70", "value": 141.1}, {"measurement": "TG (triglyceride)", "setting": "[2]; Day 70", "value": 22.1}, {"measurement": "TP (total protein)", "setting": "[2]; Day 70", "value": 6.3}]}
